Laboratory results: PubChem BioAssay (NCI)
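Five concentrations, 48 hours, 96-well plates. Here, GI50 denotes the concentration required for 50% inhibition of growth. Definition used: TGI = concentration required for complete inhibition of growth.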

Key:
Experiment in all cases: DTP human tumour cell line panel, 48 h
786-0 renal = test system: 786-0 renal
A498 renal = test system: A498 renal
A549 NSCLC = test system: A549 NSCLC
ACHN renal = test system: ACHN renal
BT-549 breast = test system: BT-549 breast
CAKI-1 renal = test system: CAKI-1 renal
CCRF-CEM leukemia = test system: CCRF-CEM leukemia
COLO 205 colon = test system: COLO 205 colon
DU-145 prostate = test system: DU-145 prostate
EKVX NSCLC = test system: EKVX NSCLC
HCC-2998 colon = test system: HCC-2998 colon
HCT-116 colon = test system: HCT-116 colon
HCT-15 colon = test system: HCT-15 colon
HL-60(TB) leukemia = test system: HL-60(TB) leukemia
HOP-62 NSCLC = test system: HOP-62 NSCLC
HOP-92 NSCLC = test system: HOP-92 NSCLC
HS 578T breast = test system: HS 578T breast
HT29 colon = test system: HT29 colon
IGROV1 ovarian = test system: IGROV1 ovarian
K-562 leukemia = test system: K-562 leukemia
KM12 colon = test system: KM12 colon
LOX IMVI melanoma = test system: LOX IMVI melanoma
M14 melanoma = test system: M14 melanoma
MALME-3M melanoma = test system: MALME-3M melanoma
MCF7 breast = test system: MCF7 breast
MDA-MB-231 breast = test system: MDA-MB-231 breast
MDA-MB-435 = test system: MDA-MB-435
MOLT-4 leukemia = test system: MOLT-4 leukemia
NCI-H226 lung = test system: NCI-H226 lung

SMILES: O=C(CN1CCOCC1)NNc1ncnc2ccccc12
- GI50 (786-0 renal): 2.23 µM
- TGI (786-0 renal): 5.17 µM
- GI50 (A498 renal): > 100 µM
- TGI (A498 renal): > 100 µM
- GI50 (A549 NSCLC): 17.4 µM
- TGI (A549 NSCLC): 34.7 µM
- GI50 (ACHN renal): 1.82 µM
- TGI (ACHN renal): 3.21 µM
- GI50 (BT-549 breast): 13.8 µM
- TGI (BT-549 breast): 28 µM
- GI50 (CAKI-1 renal): 2.76 µM
- GI50 (CCRF-CEM leukemia): 3.34 µM
- TGI (CCRF-CEM leukemia): 71 µM
- GI50 (COLO 205 colon): 2.42 µM
- TGI (COLO 205 colon): 5.37 µM
- GI50 (DU-145 prostate): 17.4 µM
- TGI (DU-145 prostate): 32.3 µM
- GI50 (EKVX NSCLC): 14.2 µM
- TGI (EKVX NSCLC): 28 µM
- GI50 (HCC-2998 colon): 16.9 µM
- TGI (HCC-2998 colon): 31.4 µM
- GI50 (HCT-116 colon): 3.14 µM
- TGI (HCT-116 colon): 12.3 µM
- GI50 (HCT-15 colon): 11.9 µM
- TGI (HCT-15 colon): 26.4 µM
- GI50 (HL-60(TB) leukemia): 5.17 µM
- TGI (HL-60(TB) leukemia): 26.2 µM
- GI50 (HOP-62 NSCLC): 17.9 µM
- TGI (HOP-62 NSCLC): 32.9 µM
- GI50 (HOP-92 NSCLC): 13.3 µM
- TGI (HOP-92 NSCLC): 27.1 µM
- GI50 (HS 578T breast): 20.6 µM
- TGI (HS 578T breast): 64.6 µM
- GI50 (HT29 colon): 15.6 µM
- TGI (HT29 colon): 33.7 µM
- GI50 (IGROV1 ovarian): 17 µM
- TGI (IGROV1 ovarian): 36.3 µM
- GI50 (K-562 leukemia): 3.18 µM
- TGI (K-562 leukemia): 12.9 µM
- GI50 (KM12 colon): 18.7 µM
- TGI (KM12 colon): 41.4 µM
- GI50 (LOX IMVI melanoma): 1.31 µM
- TGI (LOX IMVI melanoma): 11.2 µM
- GI50 (M14 melanoma): 10.1 µM
- TGI (M14 melanoma): 25.2 µM
- GI50 (MALME-3M melanoma): 1.74 µM
- TGI (MALME-3M melanoma): 3.52 µM
- GI50 (MCF7 breast): 4.33 µM
- TGI (MCF7 breast): 21.9 µM
- GI50 (MDA-MB-231 breast): 14.4 µM
- TGI (MDA-MB-231 breast): 29.6 µM
- GI50 (MDA-MB-435): 13.7 µM
- TGI (MDA-MB-435): 27 µM
- GI50 (MOLT-4 leukemia): 15.6 µM
- TGI (MOLT-4 leukemia): 56.9 µM
- GI50 (NCI-H226 lung): 15.8 µM
